Series [1] is described as follows: Trans/cis ratio (Kt/c) of prolyl amide isomers by 500 MHz NMR. Format: physicochemical. Here is the method:
For each of 11-13, the ratio of trans/cis isomers was calculated by integrating as many well-resolved peaks as possible for each isomer, and taking the average of over all peaks for respective isomers (Taylor et al., 2003). The assignment of N-terminal amide geometry for both major and minor isomers of 11-16 was based on multiple GOESY experiments (Stronehouse et al., 1994).
Experiments were undertaken to determine the Kt/c effect of certain fused bicyclic sugar-proline-containing peptides. A very similar profile of Kt/c for the Ac-Gly-GlcPro-NHMe model compounds 14-16 compared to the Ac-GlcPro-NHMe model compounds 11-13 (Table 1) was observed. In CD3OD, there was an increase in the cis-content as the sugar substituent changed from benzyl 14 (<3%), to hydroxyl 15 (15%), to acetate 16 (25%).

The conditions of series [2]: D2O; n.s. = not soluble (footnote b).

Take `CNC(=O)[C@@H]1C[C@H]2O[C@H](CO)[C@H](O)[C@@H](O)[C@@H]2N1C(=O)CNC(C)=O` [Compound 15, N-Acetyl-glycyl-(2S,3aR,5R,6R,7S,7aS)-6,7-dihydroxy-5-(hydroxymethyl)-octahydro-pyrano[3,2-b]pyrrole-2-carboxamide N′-methylamide]: the “% cis isomer” value was 15% in series [1] (CD3OD, 500 MHz NMR at 25° C.) and 10% in series [1] (D2O, 500 MHz NMR at 25° C.). Moreover, the “Trans/cis ratio (Kt/c)” value is 5.7 in series [1] (CD3OD, 500 MHz NMR at 25° C.) and 9 in series [1] (D2O, 500 MHz NMR at 25° C.).
As for `CNC(=O)[C@@H]1C[C@H]2O[C@H](COC(C)=O)[C@H](OC(C)=O)[C@@H](OC(C)=O)[C@H]2N1C(=O)CNC(C)=O` [Compound 16, N-Acetyl-glycyl-(2S,3aR,5R,6R,7S,7aS)-6,7-di-O-acetyl-5-(hydroxymethyl-O-acetyl)-octahydro-pyrano[3,2-b]pyrrole-2-carboxamide N′-methylamide], the “% cis isomer” value in series [1] (CD3OD, 500 MHz NMR at 25° C.) is given as 25%; in series [1] (CDCl3, 500 MHz NMR at 25° C.), 20%. In addition, the “Trans/cis ratio (Kt/c)” value in series [1] (CD3OD, 500 MHz NMR at 25° C.) was found to be 3; in series [1] (CDCl3, 500 MHz NMR at 25° C.), 4.
Turning to `CNC(=O)[C@@H]1C[C@H]2O[C@H](COCc3ccccc3)[C@H](OCc3ccccc3)[C@@H](OCc3ccccc3)[C@H]2N1C(=O)CNC(C)=O` [Compound 14, N-Acetyl-glycyl-(2S,3aR,5R,6R,7S,7aS)-6,7-di-O-benzyl-octahydro-5-(phenylmethyl hydroxymethyl)-pyrano[3,2-b]pyrrole-2-carboxamide N′-methylamide], in series [1] (CD3OD, 500 MHz NMR at 25° C.), the “% cis isomer” value is less than 3% and the “Trans/cis ratio (Kt/c)” value was greater than 30. Further, in series [1] (CDCl3, 500 MHz NMR at 25° C.), the “% cis isomer” value is given as 5% and the “Trans/cis ratio (Kt/c)” value is reported as 19. Also, the solubility in solvent result in series [2] is “n.s.^[b]”.

The values above are taken from patent US7951905B2, “Synthesis of carbohydrate-templated amino acids and methods of using same” (University of Manitoba, priority 2006, dated 2011).
